Experimental data from patent US11446282B2, “Methods of treating mixed dyslipidemia and hypertriglycertdemia” (Kowa Company, Ltd., priority 2017, dated 2022).

Assays:
[1] = target: T1, PPARα (Homo sapiens, UniProt Q07869); experiment: PPARα-activating effect (EC50); type: biochemical
T1 sequence (Q07869 1-468): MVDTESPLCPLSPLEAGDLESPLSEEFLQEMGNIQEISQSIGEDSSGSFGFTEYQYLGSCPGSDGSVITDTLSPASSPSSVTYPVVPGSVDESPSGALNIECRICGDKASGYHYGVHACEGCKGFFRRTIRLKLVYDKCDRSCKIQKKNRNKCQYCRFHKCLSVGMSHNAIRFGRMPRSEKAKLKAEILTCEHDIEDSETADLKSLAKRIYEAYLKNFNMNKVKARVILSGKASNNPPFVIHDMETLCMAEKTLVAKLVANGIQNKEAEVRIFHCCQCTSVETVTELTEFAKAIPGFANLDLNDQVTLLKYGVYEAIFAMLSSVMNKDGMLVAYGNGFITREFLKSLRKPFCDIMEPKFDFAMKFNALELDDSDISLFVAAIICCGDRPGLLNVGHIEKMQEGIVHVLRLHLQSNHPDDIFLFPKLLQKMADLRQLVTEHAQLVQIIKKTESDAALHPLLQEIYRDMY

[2] = Study K-877-12, pharmacokinetics in patients with renal impairment; type: in vivo, human; settings: Japanese patients with renal impairment, even severe
[3] = test system: dyslipidemic patients with statin; experiment: Example 4 pooled analysis: lipoprotein subclasses by HPLC, with statin, by eGFR; type: in vivo, human; settings: for Small HDL-C % Change from baseline to week 12 / Small LDL-C % Change from baseline to week 12 / Very small HDL-C % Change from baseline to week 12 / Very small LDL-C % Change from baseline to week 12: LS mean
Protocol: The present study analyzed data combined from 6 randomized double-blind placebo-controlled studies that were conducted in Japan and continued for 12 weeks unless otherwise noted: a phase 2 study in 224 patients with a history of documented dyslipidemia and plasma TG of 200 mg/dL (2.26 mmol/L) or higher, randomized to placebo, pemafibrate 0.05, 0.1, 0.2, 0.4 mg/day, or fenofibrate 100 mg/day; a phase 3 study in 526 patients with dyslipidemia, high TG levels, and low HDL-C levels, randomized to placebo, pemafibrate 0.1, 0.2, or 0.4 mg/day, or fenofibrate 100 or 200 mg/day; a study in 188 patients with dyslipidemia, randomized to pitavastatin in combination with pemafibrate 0.1, 0.2, or 0.4 mg/day; a 24-week study in 423 patients with dyslipidemia, randomized to pemafibrate 0.2 mg/day (fixed dose) or 0.2 [0.4] mg/day (conditional up-titration) with any statin; a 24-week phase 3 study in 166 patients with type 2 diabetes and hypertriglyceridemia, randomized to placebo or pemafibrate 0.2 or 0.4 mg/day; and a study in 27 patients with hypertriglyceridemia and insulin resistance, randomized to pemafibrate 0.4 mg/day or placebo. All studies were approved by the Institutional Review Board for each study institution and were conducted in accordance with the Declaration of Helsinki and under the guidelines of Good Clinical Practice.
In this study, we evaluated the efficacy and safety of pemafibrate at doses of 0.1 mg/day, 0.2 mg/day, and 0.4 mg/day, with and without statin. The primary efficacy endpoint was percent change in TG from baseline to 12 weeks. The secondary efficacy endpoints were also assessed from baseline to 12 weeks: percent change in HDL-C, LDL-C, non-HDL-C, TC, RemL-C, Apo AI, Apo AII, Apo B, Apo B48, Apo CII, Apo CIII, Apo CIII/Apo CII, and Apo E; percent change in HPLC findings for CM-C, VLDL-C, cholesterol content in 4 subclasses of LDL (large, medium, small, and very small LDLs), and cholesterol content for 5 subclasses of HDL (very large, large, medium, small, and very small HDLs); and changes in fibrinogen and FGF21. The primary safety endpoints were the incidence of adverse events and adverse drug reactions. Secondary safety endpoints were percentage of values above the upper limit of normal range for AST, ALT, sCr and CK, and change in sCr eGFR, CK, AST, ALT, gamma-glutamyl transferase (γ-GT), alkaline phosphatase (ALP), and total bilirubin.
Patients with renal dysfunction were defined as those with baseline eGFR<60 mL/min/1.73 m^2. Analysis was stratified by the presence or absence of renal dysfunction in the concomitant statin group, and efficacy and safety of pemafibrate were evaluated. In efficacy and safety evaluations excluding AEs, ADRs, and cutoff values for AST, ALT, sCr, and CK, findings were combined for pemafibrate subgroups receiving doses of 0.1 mg/day, 0.2 mg/day, and 0.4 mg/day.
For each lipid parameter, gel filtration HPLC was performed at Skylight Biotech, Inc. Other measurements were performed at LSI Medience Corporation. The FAS was used for analyzing efficacy parameters of effects on lipids, fibrinogen, and FGF21. The safety analysis set was used for safety parameters and included all patients who received at least one dose of the study drug. For lipid parameters, fibrinogen, and FGF21, LS means (95% confidence interval) were calculated at Week 12 (LOCF) using analysis of covariance (ANCOVA) with baseline values as the co-variable within each category. For safety parameters, LS means (95% confidence interval) were calculated at Week 12 using ANCOVA with baseline values as the co-variable within each category. SAS version 9.2 was used for analyses.

[4] = Baseline eGFR < 60 mL/min/1.73 m^2, 0.1-0.4 mg/day
[5] = Baseline eGFR ≥ 60 mL/min/1.73 m^2, 0.1-0.4 mg/day

CC[C@@H](Oc1cccc(CN(CCCOc2ccc(OC)cc2)c2nc3ccccc3o2)c1)C(=O)O [Pemafibrate, (2R)-2-[3-({1,3-benzoxazol-2-yl[3-(4-methoxyphenoxy)propyl]amino}methyl)phenoxy]butanoic acid]
specificity for the PPARα receptor ([1]; versus fenofibrate): more specific | times more active than fenofibric acid in terms of the EC50 of the PPARα-activating effect ([1]; versus fenofibric acid): approximately 2500 times | differences in pharmacokinetics (PK) with renal impairment [2]: no meaningful differences | Small HDL-C Week 12 (LOCF) [3, 4]: 0.484 mmol/L | Small LDL-C Week 12 (LOCF) [3, 4]: 0.577 mmol/L | Very small HDL-C Week 12 (LOCF) [3, 4]: 0.208 mmol/L | Very small LDL-C Week 12 (LOCF) [3, 4]: 0.229 mmol/L | Small HDL-C % Change from baseline to week 12 [3, 4]: 34.9% | Small LDL-C % Change from baseline to week 12 [3, 4]: −7.8% | Very small HDL-C % Change from baseline to week 12 [3, 4]: 25.2% | Very small LDL-C % Change from baseline to week 12 [3, 4]: −14.6% | Small HDL-C Week 12 (LOCF) [3, 5]: 0.470 mmol/L | Small LDL-C Week 12 (LOCF) [3, 5]: 0.576 mmol/L | Very small HDL-C Week 12 (LOCF) [3, 5]: 0.204 mmol/L | Very small LDL-C Week 12 (LOCF) [3, 5]: 0.231 mmol/L | Small HDL-C % Change from baseline to week 12 [3, 5]: 26.7% | Small LDL-C % Change from baseline to week 12 [3, 5]: −6.0% | Very small HDL-C % Change from baseline to week 12 [3, 5]: 19.4% | Very small LDL-C % Change from baseline to week 12 [3, 5]: −12.5% | small and very small LDL-C and HDL particle sizes (observation) ([3]; lower eGFR group): improvements
